Data on 30 compounds can be found in patent US20240400555A1 (Initial Therapeutics, Inc., priority 2023, published 2024).

Each structure is given as a SMILES string.

One experiment relates to MV-4-11 cells. In words: Cell Viability Assay in MV-4-11 Cells. It counts as cell-based. The following applies: Homo sapiens, MV4-11, 72 h. Summed up: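 MV-4-11 cells at 7,000/well in IMDM with 10% FBS, exposed to compound for 72 h. Viability by CellTiter-Glo luminescence, normalized to DMSO as 100%, fitted with a four-parameter curve.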
Take `CNC(=O)c1ccc2c(N(C(=O)c3ccc(-c4cn(C)nn4)cc3F)[C@@H]3CCCNC3)nccc2c1` [Example 688, (R)-1-(2-fluoro-4-(1-methyl-1H-1,2,3-triazol-4-yl)-N-(piperidin-3-yl)benzamido)-N-methylisoquinoline-6-carboxamide]: the IC50 – broadly, the point on the concentration scale where inhibition reaches its midpoint – was more than 4500 nM.

The experiment is the same for the next values; noted with them: Homo sapiens, MV4-11, 72 h, MV-4-11 cells, 72 h, Cell-Titer Glo; read-out: IC50.
For the compound `Cc1cc(F)cc2ccnc(N(C(=O)c3ccc(-c4cn(C)nn4)cc3)[C@@H]3CCCNC3)c12` [Example 614, (R)—N-(6-fluoro-8-methylisoquinolin-1-yl)-4-(1-methyl-1H-1,2,3-triazol-4-yl)-N-(piperidin-3-yl)benzamide], the IC50 amounted to 16 nM. Still for that read-out and setting: for `CCc1nnc(-c2ccc(C(=O)N(c3nccc4scc(Cl)c34)[C@@H]3CCCNC3)nc2)s1` [Example 668, N-(3-chlorothieno[3,2-c]pyridin-4-yl)-5-(5-ethyl-1,3,4-thiadiazol-2-yl)-N-[(3R)-3-piperidyl]pyridine-2-carboxamide] the value was 250 nM; for `Cc1cccc2ccnc(N(C(=O)c3ccc(Nc4nccc(N5CCC(=O)CC5)n4)cc3F)[C@@H]3CCCNC3)c12` [Example 719, (R)-2-fluoro-N-(8-methylisoquinolin-1-yl)-4-((4-(4-oxopiperidin-1-yl)pyrimidin-2-yl)amino)-N-(piperidin-3-yl)benzamide], 14 nM; for `Cn1cc(-c2ccc(C(=O)N(c3nccc4cccc(/C=C/c5cccnc5)c34)[C@@H]3CCCNC3)cc2)nn1` [Example 349, 4-(1-methyltriazol-4-yl)-N-[(3R)-3-piperidyl]-N-[8-[(E)-2-(3-pyridyl)vinyl]-1-isoquinolyl]benzamide], 310 nM. On to `Cc1cccc2ccnc(N(C(=O)c3ccc(Nc4nccc(N5CCCCC5)n4)cc3F)[C@@H]3CCCNC3)c12` [Example 578, (R)-2-fluoro-N-(8-methylisoquinolin-1-yl)-4-((4-(piperidin-1-yl)pyrimidin-2-yl)amino)-N-(piperidin-3-yl)benzamide], for which the IC50 was found to be 45 nM.

As for `CCn1cc(-c2ccc(C(=O)N(c3nccc4scc(C)c34)[C@@H]3CCCNC3)c(F)c2)nn1` [Example 704, (R)-4-(1-ethyl-1H-1,2,3-triazol-4-yl)-2-fluoro-N-(3-methylthieno[3,2-c]pyridin-4-yl)-N-(piperidin-3-yl)benzamide], the IC50 was 79 nM.

As for `Cc1cc(F)cc2ccnc(N(C(=O)c3ccc(-c4cn(C)nn4)cc3F)[C@H]3CCCNC3)c12` [Example 620, 2-fluoro-N-(6-fluoro-8-methyl-1-isoquinolyl)-4-(1-methyltriazol-4-yl)-N-[(3S)-3-piperidyl]benzamide], the IC50 is more than 5900 nM. Turning to `Cc1cn(-c2ccc(C(=O)N(c3nccc4cccc(Cl)c34)[C@@H]3CCCNC3)c(F)c2)nn1` [Example 393, (R)—N-(8-chloroisoquinolin-1-yl)-2-fluoro-4-(4-methyl-1H-1,2,3-triazol-1-yl)-N-(piperidin-3-yl)benzamide], the IC50 was found to be 150 nM. Take `Cc1cc(-c2cc3c(N(C(=O)c4ccc(-n5nnc6cccnc65)cc4F)[C@@H]4CCCNC4)nccc3s2)ccc1C(N)=O` [Example 572, 4-[4-[[2-fluoro-4-(triazolo [4,5-b]pyridin-3-yl)benzoyl]-[(3R)-3-piperidyl]amino]thieno [3,2-c]pyridin-2-yl]-2-methyl-benzamide]: the IC50 was 89 nM.

`Cc1csc2ccnc(N(C(=O)c3ccc(-c4nnc(CCC#N)s4)cc3)[C@@H]3CCCNC3)c12` [Example 882, 4-[5-(2-cyanoethyl)-1,3,4-thiadiazol-2-yl]-N-(3-methylthieno[3,2-c]pyridin-4-yl)-N-[(3R)-3-piperidyl]benzamide]: the IC50 is 180 nM. With `CC(=O)c1ccc(-c2cc3c(N(C(=O)c4ccc(-n5nnc6cccnc65)cc4F)[C@@H]4CCCNC4)nccc3s2)cc1` [Example 603, N-[2-(4-acetylphenyl)thieno[3,2-c]pyridin-4-yl]-2-fluoro-N-[(3R)-3-piperidyl]-4-(triazolo[4,5-b]pyridin-3-yl) benzamide], the 50% inhibitory concentration (IC50) was found to be 240 nM. As for `CCn1cc(-c2ccc(C(=O)N(c3nccc4scc(C)c34)[C@@H]3CCCNC3)cc2)nn1` [Example 859, 4-(1-ethyltriazol-4-yl)-N-(3-methylthieno[3,2-c]pyridin-4-yl)-N-[(3R)-3-piperidyl] benzamide], the IC50 was 100 nM. As for `Cc1cc(C)c2c(N(C(=O)c3ccc(-c4nnc(C)o4)cc3F)[C@@H]3CCCNC3)nccc2c1` [Example 643, (R)—N-(6,8-dimethylisoquinolin-1-yl)-2-fluoro-4-(5-methyl-1,3,4-oxadiazol-2-yl)-N-(piperidin-3-yl)benzamide], the IC50 was 64 nM.

In the case of `Cn1cc(-c2ccc(C(=O)N(c3nccc4sc(-c5cccc(N)c5)cc34)[C@@H]3CCCNC3)c(F)c2)nn1` [Example 509, N-[2-(3-aminophenyl)thieno[3,2-c]pyridin-4-yl]-2-fluoro-4-(1-methyltriazol-4-yl)-N-[(3R)-3-piperidyl]benzamidezamide], the IC50 came out at 520 nM. As to `O=C(c1ccc(-n2nnc3cccnc32)cc1F)N(c1nccc2cc(-c3cccnc3)ccc12)[C@@H]1CCCNC1` [Example 367, (R)-4-(3H-[1,2,3]triazolo[4,5-b]pyridin-3-yl)-2-fluoro-N-(piperidin-3-yl)-N-(6-(pyridin-3-yl)isoquinolin-1-yl)benzamide], the IC50 stood at 250 nM.

Regarding `Cc1nnc(-c2ccc(C(=O)N(c3nccc4c(C)ccc(C)c34)[C@@H]3CCCNC3)nc2)s1` [Example 877, N-(5,8-dimethyl-1-isoquinolyl)-5-(5-methyl-1,3,4-thiadiazol-2-yl)-N-[(3R)-3-piperidyl]pyridine-2-carboxamide], the IC50 was 790 nM. With `C=CC(=O)NC1CCCN(C(=O)N(c2nccc3cccc(C)c23)[C@@H]2CCCNC2)C1` (stereo partly drawn) [Example 399, 3-acrylamido-N-(8-methylisoquinolin-1-yl)-N—((R)-piperidin-3-yl)piperidine-1-carboxamide], the IC50 turned out to be 1100 nM. Turning to `CCn1cc(-c2cc3c(N(C(=O)c4ccc(-n5nnc6cccnc65)cc4F)[C@@H]4CCCNC4)nccc3s2)cn1` [Example 436, N-[2-(1-ethylpyrazol-4-yl)thieno[3,2-c]pyridin-4-yl]-2-fluoro-N-[(3R)-3-piperidyl]-4-(triazolo[4,5-b]pyridin-3-yl)benzamide], the IC50 was determined as 270 nM. On to `O=C(c1ccc(-n2nnc3cccnc32)cc1)N(c1ncccc1Cl)[C@@H]1CCCNC1` [Example 305, (R)-4-(3H-[1,2,3]triazolo[4,5-b]pyridin-3-yl)-N-(3-chloropyridin-2-yl)-N-(piperidin-3-yl)benzamide], for which the IC50 is 1600 nM. For the compound `O=C(c1ccc(-n2nnc3cccnc32)cc1F)N(c1nccc2sc(-c3cccc(O)c3)cc12)[C@@H]1CCCNC1` [Example 381, 2-fluoro-N-[2-(3-hydroxyphenyl)thieno[3,2-c]pyridin-4-yl]-N-[(3R)-3-piperidyl]-4-(triazolo[4,5-b]pyridin-3-yl)benzamide], the IC50 amounted to 200 nM. For `CNc1cccnc1Nc1ccc(C(=O)N(c2nccc3cccc(C)c23)[C@@H]2CCCNC2)c(F)c1` [Example 726, (R)-2-fluoro-4-((3-(methylamino)pyridin-2-yl)amino)-N-(8-methylisoquinolin-1-yl)-N-(piperidin-3-yl)benzamide], the IC50 came out at 1900 nM. Regarding `Cc1cccc2ccnc(N(C(=O)c3ccc(Nc4nccc(N5CCOCC5)n4)cc3F)[C@@H]3CCCNC3)c12` [Example 408, (R)-2-fluoro-N-(8-methylisoquinolin-1-yl)-4-((4-morpholinopyrimidin-2-yl)amino)-N-(piperidin-3-yl)benzamide], the IC50 amounted to 5.3 nM. Consider `Cc1cccc2ccnc(N(C(=O)c3ccc(-c4nnc(C5CC5)o4)cc3)[C@@H]3CCCNC3)c12` [Example 789, (R)-4-(5-cyclopropyl-1,3,4-oxadiazol-2-yl)-N-(8-methylisoquinolin-1-yl)-N-(piperidin-3-yl)benzamide], for which the IC50 stood at 97 nM. Still for that read-out and setting: for `Cn1cc(-c2ccc(C(=O)N(c3nccc4cccc(Cl)c34)[C@@H]3CCCNC3)cc2)nn1` [Example 800, (R)—N-(8-chloroisoquinolin-1-yl)-4-(1-methyl-1H-1,2,3-triazol-4-yl)-N-(piperidin-3-yl)benzamide] the value was 170 nM; for `O=C(O)/C=C/c1cc2c(N(C(=O)c3ccc(-n4nnc5cccnc54)cc3F)[C@@H]3CCCNC3)nccc2s1` [Example 500, (E)-3-[4-[[2-fluoro-4-(triazolo[4,5-b]pyridin-3-yl)benzoyl]-[(3R)-3-piperidyl]amino]thieno[3,2-c]pyridin-2-yl]prop-2-enoic acid], more than 10000 nM; for `Cc1sc2ccnc(N(C(=O)c3ccc(-c4cn(C)nn4)cc3F)[C@@H]3CCCNC3)c2c1C` [Example 831, (R)—N-(2,3-dimethylthieno[3,2-c]pyridin-4-yl)-2-fluoro-4-(1-methyl-1H-1,2,3-triazol-4-yl)-N-(piperidin-3-yl)benzamide], 440 nM. Still for that read-out and setting: for `COC(=O)c1nc(-c2cc3c(N(C(=O)c4ccc(-n5nnc6cccnc65)cc4F)[C@@H]4CCCNC4)nccc3s2)cs1` [Example 429, methyl 4-[4-[[2-fluoro-4-(triazolo[4,5-b]pyridin-3-yl)benzoyl]-[(3R)-3-piperidyl]amino]thieno[3,2-c]pyridin-2-yl]thiazole-2-carboxylate] the value was 1000 nM; for `CCn1cc(-c2ccc(C(=O)N(c3nccc4cccc(C)c34)[C@@H]3CCCNC3)c(F)c2)nn1` [Example 821, (R)-4-(1-ethyl-1H-1,2,3-triazol-4-yl)-2-fluoro-N-(8-methylisoquinolin-1-yl)-N-(piperidin-3-yl)benzamide], 67 nM; for `O=C(c1ccc(-n2nnc3cccnc32)cc1F)N(c1nccc2sc(-c3ccc(B(O)O)cc3)cc12)[C@@H]1CCCNC1` [Example 569, [4-[4-[[2-fluoro-4-(triazolo[4,5-b]pyridin-3-yl)benzoyl]-[(3R)-3-piperidyl]amino]thieno[3,2-c]pyridin-2-yl]phenyl]boronic acid], 570 nM.
